Key:
Assay in all cases: Post-emergence test experiment (greenhouse pot, spray at 2-3 leaf stage)
Type in all cases: in vivo
Details in all cases: 1000 g/ha; post-emergence spray at 2-3 leaf stage; assessed after 3 weeks; fresh weight inhibition rate
Abutilon theophrasti = system: Abutilon theophrasti
How it was run: (§1)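 Weed seeds sown in soil-filled pots in greenhouse, sprayed at 2-3 leaf stage (2 weeks after sowing) with compound in acetone/tween-80 plus methyl oleate emulsible concentrate (1.5 L/ha) diluted in water. Fresh-weight growth inhibition scored after 3 weeks on 0-5 scale (5: >85%, 0: <5%).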

Digitaria sanguinalis = system: Digitaria sanguinalis
How it was run: as §1

Echinochloa crusgalli = system: Echinochloa crusgalli
How it was run: as §1

Galium spurium = system: Galium spurium
How it was run: as §1

Monochoria vaginalis = system: Monochoria vaginalis
How it was run: as §1

Row | SMILES | Activity level (growth inhibition rate) Abutilon theophrasti (Abutilon theophrasti) | Activity level (growth inhibition rate) Digitaria sanguinalis (Digitaria sanguinalis) | Activity level (growth inhibition rate) Echinochloa crusgalli (Echinochloa crusgalli) | Activity level (growth inhibition rate) Galium spurium (Galium spurium) | Activity level (growth inhibition rate) Monochoria Vaginalis (Monochoria vaginalis)
1 | CC(Oc1nc(F)c(Cl)c(N)c1Cl)C(=O)OCc1ccc(C2CC2Cl)cc1 (stereo not shown) [Compound 102] | 5 (Level 5: the growth inhibition rate is greater than 85%) | 5 (Level 5: the growth inhibition rate is greater than 85%) | 5 (Level 5: the growth inhibition rate is greater than 85%) | 5 (Level 5: the growth inhibition rate is greater than 85%) | 5 (Level 5: the growth inhibition rate is greater than 85%)
2 | CC(Oc1nc(F)c(Cl)c(N)c1Cl)C(=O)OCc1ccc2c(c1)OCO2 (stereo not shown) [Compound 176] | 5 (Level 5: the growth inhibition rate is greater than 85%) | 5 (Level 5: the growth inhibition rate is greater than 85%) | 5 (Level 5: the growth inhibition rate is greater than 85%) | 5 (Level 5: the growth inhibition rate is greater than 85%) | 5 (Level 5: the growth inhibition rate is greater than 85%)
3 | CC(Oc1nc(F)c(Cl)c(N)c1Cl)C(=O)OCc1ccccc1Cl (stereo not shown) [Compound 202] | 5 (Level 5: the growth inhibition rate is greater than 85%) | 5 (Level 5: the growth inhibition rate is greater than 85%) | 5 (Level 5: the growth inhibition rate is greater than 85%) | 5 (Level 5: the growth inhibition rate is greater than 85%) | 5 (Level 5: the growth inhibition rate is greater than 85%)
4 | CC(Oc1nc(F)c(Cl)c(N)c1Cl)C(=O)OCc1cccc(Br)c1 (stereo not shown) [Compound 206] | 5 (Level 5: the growth inhibition rate is greater than 85%) | 5 (Level 5: the growth inhibition rate is greater than 85%) | 5 (Level 5: the growth inhibition rate is greater than 85%) | 5 (Level 5: the growth inhibition rate is greater than 85%) | 5 (Level 5: the growth inhibition rate is greater than 85%)
5 | Cc1nc(OC(C)C(=O)OCc2ccccc2)c(C)c(N)c1C (stereo not shown) [Compound 19] | 5 (Level 5: the growth inhibition rate is greater than 85%) | 5 (Level 5: the growth inhibition rate is greater than 85%) | 5 (Level 5: the growth inhibition rate is greater than 85%) | 5 (Level 5: the growth inhibition rate is greater than 85%) | 5 (Level 5: the growth inhibition rate is greater than 85%)
6 | CC(Oc1nc(F)c(Cl)c(N)c1Cl)C(=O)OCc1cccnc1 (racemic) [Compound 116] | 5 (Level 5: the growth inhibition rate is greater than 85%) | 5 (Level 5: the growth inhibition rate is greater than 85%) | 5 (Level 5: the growth inhibition rate is greater than 85%) | 5 (Level 5: the growth inhibition rate is greater than 85%) | 5 (Level 5: the growth inhibition rate is greater than 85%)
7 | CC(Oc1nc(F)c(Cl)c(N)c1Cl)C(=O)SCc1ccnnc1 (stereo not shown) [Compound 123] | 5 (Level 5: the growth inhibition rate is greater than 85%) | 5 (Level 5: the growth inhibition rate is greater than 85%) | 5 (Level 5: the growth inhibition rate is greater than 85%) | 5 (Level 5: the growth inhibition rate is greater than 85%) | 5 (Level 5: the growth inhibition rate is greater than 85%)
8 | CC(Oc1nc(F)c(Cl)c(N)c1Cl)C(=O)OCc1cccc(Oc2ccccc2)c1 (racemic) [Compound 114] | 5 (Level 5: the growth inhibition rate is greater than 85%) | 5 (Level 5: the growth inhibition rate is greater than 85%) | 5 (Level 5: the growth inhibition rate is greater than 85%) | 5 (Level 5: the growth inhibition rate is greater than 85%) | 5 (Level 5: the growth inhibition rate is greater than 85%)
9 | CC(Oc1nc(F)c(Cl)c(N)c1Cl)C(=O)SCCc1cnccc1Cl (racemic) [Compound 119] | 5 (Level 5: the growth inhibition rate is greater than 85%) | 5 (Level 5: the growth inhibition rate is greater than 85%) | 5 (Level 5: the growth inhibition rate is greater than 85%) | 5 (Level 5: the growth inhibition rate is greater than 85%) | 5 (Level 5: the growth inhibition rate is greater than 85%)
10 | CC(Oc1nc(F)c(Cl)c(N)c1Cl)C(=O)SCc1cccc(C(F)(F)F)c1 (stereo not shown) [Compound 233] | 5 (Level 5: the growth inhibition rate is greater than 85%) | 5 (Level 5: the growth inhibition rate is greater than 85%) | 5 (Level 5: the growth inhibition rate is greater than 85%) | 5 (Level 5: the growth inhibition rate is greater than 85%) | 5 (Level 5: the growth inhibition rate is greater than 85%)
11 | CCOC(=O)Nc1cccc(CSC(=O)C(C)Oc2nc(F)c(Cl)c(N)c2Cl)c1 (racemic) [Compound 109] | 5 (Level 5: the growth inhibition rate is greater than 85%) | 5 (Level 5: the growth inhibition rate is greater than 85%) | 5 (Level 5: the growth inhibition rate is greater than 85%) | 5 (Level 5: the growth inhibition rate is greater than 85%) | 5 (Level 5: the growth inhibition rate is greater than 85%)
12 | CC(Oc1nc(F)c(Cl)c(N)c1Cl)C(=O)SCc1nncn1C (stereo not shown) [Compound 134] | 5 (Level 5: the growth inhibition rate is greater than 85%) | 5 (Level 5: the growth inhibition rate is greater than 85%) | 5 (Level 5: the growth inhibition rate is greater than 85%) | 5 (Level 5: the growth inhibition rate is greater than 85%) | 5 (Level 5: the growth inhibition rate is greater than 85%)
13 | CC(Oc1nc(F)c(Cl)c(N)c1Cl)C(=O)OCCc1nnco1 (stereo not shown) [Compound 148] | 5 (Level 5: the growth inhibition rate is greater than 85%) | 5 (Level 5: the growth inhibition rate is greater than 85%) | 5 (Level 5: the growth inhibition rate is greater than 85%) | 5 (Level 5: the growth inhibition rate is greater than 85%) | 5 (Level 5: the growth inhibition rate is greater than 85%)
14 | Cc1ccccc1CSC(=O)C(C)Oc1nc(F)c(Cl)c(N)c1Cl (stereo not shown) [Compound 218] | 5 (Level 5: the growth inhibition rate is greater than 85%) | 5 (Level 5: the growth inhibition rate is greater than 85%) | 5 (Level 5: the growth inhibition rate is greater than 85%) | 5 (Level 5: the growth inhibition rate is greater than 85%) | 5 (Level 5: the growth inhibition rate is greater than 85%)
15 | COC(=O)c1ccc(COC(=O)C(C)Oc2nc(F)c(Cl)c(N)c2Cl)cc1 (stereo not shown) [Compound 98] | 5 (Level 5: the growth inhibition rate is greater than 85%) | 5 (Level 5: the growth inhibition rate is greater than 85%) | 5 (Level 5: the growth inhibition rate is greater than 85%) | 5 (Level 5: the growth inhibition rate is greater than 85%) | 5 (Level 5: the growth inhibition rate is greater than 85%)
16 | CC(Oc1nc(F)c(Cl)c(N)c1Cl)C(=O)SCc1ccon1 (stereo not shown) [Compound 145] | 5 (Level 5: the growth inhibition rate is greater than 85%) | 5 (Level 5: the growth inhibition rate is greater than 85%) | 5 (Level 5: the growth inhibition rate is greater than 85%) | 5 (Level 5: the growth inhibition rate is greater than 85%) | 5 (Level 5: the growth inhibition rate is greater than 85%)
17 | CC(Oc1nc(F)c(Cl)c(N)c1Cl)C(=O)OCc1ccns1 (stereo not shown) [Compound 160] | 5 (Level 5: the growth inhibition rate is greater than 85%) | 5 (Level 5: the growth inhibition rate is greater than 85%) | 5 (Level 5: the growth inhibition rate is greater than 85%) | 5 (Level 5: the growth inhibition rate is greater than 85%) | 5 (Level 5: the growth inhibition rate is greater than 85%)

— US12049450B2, “Pyridyloxy-carboxylate derivative and preparation method therefor, herbicidal composition, and use” (Qingdao Kingagroot Chemical Compound Co., Ltd., priority 2018, dated 2024)
